From patent US6815450B2, “Axon regeneration with PKC inhibitors” (Children's Medical Center Corporation, priority 2002, dated 2004)
Counter-ions that a name gives are not always drawn. Residues, ends and D or L forms follow the SMILES beside them. *: point of attachment. Cbz = O=C(OCc1ccccc1)*; CH2F = FC*

How the values were obtained:
protein kinase C = conditions: cited from earlier work
[1] = system: P7 rat CGNs injected into the ventral funiculus of the adult rat spinal cord; test: intra white matter transplantation of CGNs; format: in vivo; conditions: two weeks after transplantation; CGNs pretreated with 50 nM
Protocol: We thus injected vehicle or Gö6976-treated P7 rat CGNs into the ventral funiculus of the adult rat spinal cord and examined neurite outgrowth of these transplanted neurons within the white matter that is largely composed of myelinated axons (26).
26. Intra white matter transplantation of CGNs. P7 CGN (50,000 cells/ml) were prelabeled with Cell Tracker CM-DiI (1 mM; Molecular Probes, Eugene, Oreg.), pretreated with PBS or 50 nM Gö6976, and microinjected at the level of T9 into the spinal cord ventral funiculus of adult Sprague-Dawley rats ([…]; N=3 for each group). Two pieces of 2 mm^3 gelfoam (Pharmacia & Upjohn, Kalamazoo, Mich.) soaked with PBS or 500 nM Gö6976 were placed onto the spinal dura where the penetration for cell injection occurred. Spinal cords (8 mm in length centered around the CGN injection site) were collected 2 weeks after surgery, and […] sagittal sections were made. DiI positive CGNs were examined with a fluorescent microscope (Omega XF-32 optical filter) in all sections of each cord to evaluate cell survival (27). Percentages of the neurite-bearing CGNs and CGNs with neurites longer than twice the soma length were quantified among 400 CGNs from a single […] of each cord that had the highest number of neurite-bearing CGNs.

[2] = system: CGNs, DRG sensory neurons or NG108 cells on immobilized CNS myelin; test: neurite outgrowth assay on CNS myelin substrate; format: cell-based, rat; conditions: for neurite outgrowth on immobilized CNS myelin: P7-9 rat CGNs and DRG sensory neurons; for neurite outgrowth on a CNS myelin substrate: 100 nM
Protocol: (§1) To assess the functional relevance of the activation of the PI3K, MEK and PLC-g pathways, we utilized a standard neurite outgrowth assay in which NG108 cells or cerebellar granule neurons (CGN) from postnatal day 7-9 (P7-9) rats were grown on immobilized recombinant MAG or myelin (5-10, 16). Pharmacological inhibitors of the individual pathways—LY294002 and wortmannin for PI3K, U0126 for MEK, and U73122 for PLC-g, were then added to assess whether and to what extent these inhibitors could overcome the inhibitory activity of MAG or of myelin. […] As MEK has been previously shown to be required for axon growth induced by chronic exposure to neurotrophins (14), but not for growth cone turning in acute responses to NGF gradients (12), our results of abolishing MAG inhibition by an MEK inhibitor imply that the MEK pathway can be required only for neurite outgrowth in response to external cues.
Based on the modulation of neurite outgrowth by modulating PKC activity, we predicted that inhibiting PKC activity might abolish or convert the inhibitory responses of neurons to MAG and other myelin-associated inhibitors. […] Based on existing evidence for the functional interactions between the PKA and PKC pathways (24), we conclude that both PKA and PKC act through parallel mechanisms in affecting neurite outgrowth. Although many PKC isoforms are expressed in the nervous system (25), our observations with phorbol ester and selective PKC inhibitors indicate the involvement of at least classical PKC isoforms whose activation is dependent on diacylglycerol (DAG) and calcium (24).
Screening for compounds that allow neurite outgrowth from postnatal day 7-9 rat cerebellar granule neurons (CGNs) on CNS myelin substrates, we identified several broad-specificity PKC inhibitors from a small molecule libraries. Based on their structure and substrate requirements, PKC isoforms can be divided into three classes: the Ca++ and second messenger diacylglycerol (DAG)-sensitive conventional PKCs (-α, -β, and -γ), the Ca++-independent but DAG-dependent novel PKCs (-δ, -ε, -η, -θ, and -μ), and the Ca++- and DAG-insensitive atypical PKCs (-ζ and -λ). We first examined PKC inhibitors with a higher specificity for the conventional class of PKC isotypes for their ability to promote neurite outgrowth on CNS myelin. These inhibitors included Chelerythrine, Calphostin, Bisindoleylmaleimide I, and Gö6976. Dose response experiments (in the range of 10 nM to 10 uM) were carried out for each PKC inhibitor.

[3] = system: CGNs on MAG, Nogo-A and OMgp; test: neurite outgrowth on individual myelin inhibitors; format: cell-based, rat
Protocol: […] Based on their structure and substrate requirements, PKC isoforms can be divided into three classes: the Ca++ and second messenger diacylglycerol (DAG)-sensitive conventional PKCs (-α, -β, and -γ), the Ca++-independent but DAG-dependent novel PKCs (-δ, -ε, -η, -θ, and -μ), and the Ca++- and DAG-insensitive atypical PKCs (-ζ and -λ). […] These inhibitors included Chelerythrine, Calphostin, Bisindoleylmaleimide I, and Gö6976. Dose response experiments (in the range of 10 nM to 10 uM) were carried out for each PKC inhibitor.

RhoA = RhoA pull down assay in stimulated CGNs; format: cell-based, rat; conditions: cultured CGNs
Description: We also assessed whether individual inhibitors affect endogenous PKC activity in treated neurons. […] To further confirm the role of PKC as a direct signaling mediator, we examined whether PKC activation by myelin inhibitors is dependent on NgR, a required receptor component for all of the three major myelin inhibitors. Thus, we used recombinant retroviruses to overexpress full-length or dominant negative NgR in CGNs and examined PKC activation in these transduced neurons by NgR ligands. […] An additional and critical signaling event shared by these inhibitory activities is the activation of the small GTPase RhoA. In order to determine the relationship between PKC and RhoA in these pathways, we stimulated cultured CGNs with MAG-Fc, AP-Nogo-66 or CSPG in the presence or absence of Gö6976 and examined the RhoA activation in these conditions by subjecting the resulting cell lysates to a RhoA pull down assay. […] Thus, conventional PKCs participate in transducing the inhibitory signals of both myelin inhibitors and CSPG from their specific cell surface receptors to activate RhoA.

[4] = system: dorsal column ascending axons; test: dorsal column axonal regeneration after C3-4 spinal dorsal hemisection; format: in vivo, adult rats
Protocol: To assess the contribution of PKC mediated inhibitory effects on axon regeneration in vivo, we examined whether intrathecal infusion of Gö6976 affected regeneration of dorsal column ascending axons following spinal cord dorsal hemisection in adult rats. The hemisection was performed between the 3rd and 4th cervical spinal segments (C3-4) to a depth of 1.6 mm from the dorsal surface of the cord using a VibraKnife device that can be used to precisely control the lesion depth stereotaxically. To ensure that bilateral dorsal columns were completely transected, the lesion was advanced ventrally to the level of central cannel resulting in the transection of the entire dorsal half of the spinal cord. After the lesion, dura mater was sutured to restore cerebespinal fluid circulation and to prevent connective tissue invasion. Intrathecal delivery of Gö6976 (20 uM) or saline vesicle into the lesion site was achieved by constant infusion of the compound at a rate of 0.5 ul/hr for 14 days using an Alzet mini-osmotic pump (Model 2002). Five weeks after surgery, a narrow lesion gap through the dorsal half of the cord was clearly seen, confirming the completeness of dorsal column transection. […] Anatomical regeneration of injured dorsal column axons was assessed by anterograde tracing of Cholera toxin B subunit (CTB) which was injected into bilateral sciatic nerves and brachial plexuses.

[5] = system: NG108 cells and CGNs transfected with Akt forms; test: neurite outgrowth of Akt-transfected cells; format: cell-based, rat; parameters: effect on pro-growth effect of dominant negative Akt / cell survival / process extension of constitutively active Akt expressing NG108 cells: unit of the concentration uncertain
Description: Having determined that the PI3K pathway is both activated and required in MAG signaling, we next examined whether Akt, a major downstream effector of PI3K in promoting cell survival (13, 17) and in determining the directionality of cell movement during chemotaxis (18), could account for the neurite inhibitory effect of MAG. To this end, we transfected NG108 cells with three versions of the Akt product—a constitutive active, a dominant negative and a wild type form (19), and compared their effects on neurite outgrowth.
Since Akt has been thought of as a positive regulator of neurite outgrowth (21), our results with over-expression of constitutively active Akt came as a surprise. […] However, expression of dominant negative Akt led to the death of the transfected CGNs, consistent with a critical role of Akt in promoting cell survival (13, 17 and 19). Thus, the neurite outgrowth response elicited by Akt activation differs in a cell type specific manner.
Growth cone responses can be converted from attraction to repulsion and vice versa through the modification of cellular cyclic nucleotide levels (12, 16, 23). […] As the PLCg pathway is activated by MAG and PKC is a major effector of PLCg (15), we assessed whether changes in PKC activity could affect the activity of different forms of Akt in NG-108 cells on the PDL substrate.

[6] = system: NG108 cells or cerebellar granule neurons (CGN) on immobilized recombinant MAG; test: neurite outgrowth assay on immobilized recombinant MAG; format: cell-based, rat
Protocol: as §1

NG108 cells and CGNs = test: toxicity to cultured neuronal cells; format: cell-based, rat; conditions: even at 100 nM
Protocol: as §1

[7] = system: CGNs, DRG sensory neurons or NG108 cells on immobilized CNS myelin; conditions: previously shown; cited from earlier work
[8] = system: neurons on CSPG substrate; test: neurite outgrowth on CSPG substrate; format: cell-based, rat
Description: We examined whether PKC is involved in the inhibitory activity of CSPG, the other major inhibitory activity associated with glial scars in the adult CNS.

[9] = NG-108 cells, 10 (unit uncertain)

Which IC50 (protein kinase C) does the source give for `CC1CNCCN1S(=O)(=O)c1cccc2cnccc12` (racemic) [compound 542, (+−)-1-(5-Isoquinolinesulfonyl)-2-methylpiperazine dihydrochloride] here?
The IC50 was 6 µM.

For `Cn1c2ccccc2c2c3c(c4c5ccccc5n(CCC#N)c4c21)CNC3=O` [Gö6976], which “donor neurons bearing neurites” value [1] is on record?
Its value is 85%.

What about the “neurite-bearing neurons with neurites longer than twice their soma diameters” value [1] of the same molecule?
Its value is 80%.

What about the “neurite outgrowth on immobilized CNS myelin” value [2] of the same molecule?
The value was “profoundly affected neurite outgrowth by enhancing both the number of neurite-bearing cells and the length of neurites”.

And the “neurite outgrowth on a CNS myelin substrate” value ([2]; P7-9 rat CGNs)?
The value was “profoundly mitigated outgrowth inhibition and promoted significant neurite outgrowth”.

And the “neurite outgrowth inhibition induced by MAG, Nogo-A and OMgp” value [3]?
Its value is “efficiently overcame neurite outgrowth inhibition”.

What about the “MAG-Fc, AP-Nogo-66 and CSPG induced RhoA activation” value (RhoA) of the same molecule?
Its value is “blocked MAG-Fc, AP-Nogo-66 and CSPG induced RhoA activation in a dose dependent manner”.

And the “regeneration of CTB-labeled dorsal column axons across the lesion” value ([4]; 20 uM intrathecal, 0.5 ul/hr for 14 days, five weeks after surgery)?
The value was “CTB-labeled axons were seen to cross the lesion gap and grow within the distal host spinal cord for a considerable distance”.

And the “distance distal to the injury at which many regenerated axons ended” value ([4]; 20 uM intrathecal, 0.5 ul/hr for 14 days, longest distance examined)?
The value was 7 mm.

And the “functional connections and recovery” value ([4]; subsequent studies)?
The value was “improves physiological and behavioral recovery”.

What does the source list for `CCCCCCCCCCCCCC(=O)O[C@@H]1[C@@H](C)[C@@]2(O)[C@@H](C=C(CO)C[C@]3(O)C(=O)C(C)=C[C@@H]23)[C@@H]2C(C)(C)[C@]12OC(C)=O` [PMA, phorbol myristate-13-acetate]?
neurite outgrowth from untransfected cells and wild type Akt transfected cells [5]: did not result in significant alterations in neurite outgrowth; neurite outgrowth promoting activity of active Akt in CGNs ([5]; CGNs): abolished the neurite outgrowth promoting activity of active Akt; neurite outgrowth from NG108 cells expressing dominant negative Akt ([5]; PDL substrate, 100 nM): resulted in inhibition of neurite outgrowth

For `Nc1nc2c(nc(Br)n2[C@@H]2O[C@@H]3COP(O)(=S)O[C@H]3[C@H]2O)c(=O)[nH]1` (some centres unmarked) [Rp-8-Br-cGMPS], which “neurite outgrowth on CNS myelin substrate” value ([2]; P7-9 rat CGNs) is on record?
Its value is “failed to overcome the inhibitory effects of CNS myelin”.

For `N#CC(=C(/N)Sc1ccccc1N)/C(C#N)=C(\N)Sc1ccccc1N` [U0126], which “neurite outgrowth on the MAG substrate” value [6] is on record?
Its value is “promoted neurite outgrowth”.

Which toxicity to cells (NG108 cells and CGNs) does the source give for `COc1ccc2c(c1)CC[C@@H]1[C@@H]2CC[C@]2(C)[C@@H](NCCCCCCN3C(=O)C=CC3=O)CC[C@@H]12` [U73122] here?
Its toxicity to cells is “appeared toxic”.

With `C[C@@H](N)[C@H]1CC[C@H](C(=O)Nc2ccncc2)CC1` [Y-27632] as the molecule, how does the “block of the inhibitory activity of CNS myelin and its components” value [7] read?
Its value is “block the inhibitory activity of CNS myelin and its components”.

And the “effect on CSPG substrate relative to chondroitinase ABC” value [8]?
The value was “stronger effects than chondroitinase ABC”.

What about the “neurite outgrowth from neurons on CSPG substrate” value [8] of the same molecule?
The value was “allowed the cultured neurons to overcome the inhibitory activity of CSPG”.

For `CC(NC(=O)C(NC(=O)OCc1ccccc1)C(C)C)C(=O)NC(CC(=O)O)C(=O)CF` (stereo not drawn) [ZVAD] (Cbz-Val-Ala-Asp-CH2F; configuration not given here), which cell survival [5, 9] is on record?
Its cell survival is “enhancing cell survival”.

And the “effect on pro-growth effect of dominant negative Akt” value [5, 9]?
The value was “did not affect the pro-growth effect of the dominant negative form of Akt”.

With `O=S(=O)(c1cccc2cnccc12)N1CCNCC1` [compound 543, 1-(5-Isoquinolinesulfonyl)piperazine] as the molecule, how does the IC50 (protein kinase C) read?
The IC50 was 6 µM.

Which “neurite outgrowth on immobilized CNS myelin” value [2] does the source give for `Nc1ncnc2c1ncn2[C@@H]1O[C@@H]2COP(O)(=S)O[C@H]2[C@H]1O` (some centres unmarked) [sp-cAMP] here?
The value was “stimulated neurite outgrowth”.

What does the source list for bisindolylmaleimide [GFX]?
neurite outgrowth from untransfected cells and wild type Akt transfected cells [5]: did not result in significant alterations in neurite outgrowth; process extension of constitutively active Akt expressing NG108 cells ([5]; PDL substrate, 5 (unit uncertain)): the majority of constitutively active Akt expressing NG108 cells extended processes; neurite outgrowth on immobilized CNS myelin [2]: profoundly affected neurite outgrowth by enhancing both the number of neurite-bearing cells and the length of neurites

Which “neurite outgrowth on immobilized CNS myelin” value [2] does the source give for calphostin C here?
The value was “profoundly affected neurite outgrowth by enhancing both the number of neurite-bearing cells and the length of neurites”.

What about the “neurite outgrowth on a CNS myelin substrate” value ([2]; P7-9 rat CGNs) of the same molecule?
The value was “profoundly mitigated outgrowth inhibition and promoted significant neurite outgrowth”.

What about the “neurite outgrowth inhibition induced by MAG, Nogo-A and OMgp” value [3] of the same molecule?
Its value is “efficiently overcame neurite outgrowth inhibition”.
